This is an account of results in article PMC7766124, “Improved Cell Selectivity of Pseudin-2 via Substitution in the Leucine-Zipper Motif: In Vitro and In Vivo Antifungal Activity” (Antibiotics, 2020).

Read-outs that look alike come from different tables or passages of the source. No end group written: not given here. Bounds are passed on as bounds.

Experiment [1] deals with C. tropicalis. Description: C. tropicalis skin infection mouse model. The format is in vivo, BALB/C female mice. Here is the method:
All animal experiments and procedures were performed with the approval of the Institutional Animal Care and Use Committee (IACUC) of Sunchon National University, Korea (SCNU IACUC-2019-10). BALB/C female mice (six weeks old) were obtained from Koatech Co. (Pyongtaek, Gyeonggido, Korea) and divided into three groups (n = 4): control, pseudin-2, and P2-LZ4 groups. The skin on the back of each mouse was shaved 1 h before infection, and the mice were anesthetized by inhalation of 5% (induction) and 2% (maintenance) isoflurane in pure oxygen. Mice were then subjected to subcutaneous infection with 100 µL C. tropicalis (10^7 cells/mL) by injection into the dorsum of each mouse. At 24 h after infection, 100 µL PBS, pseudin-2 (0.1 mg/mL), or P2-LZ4 (0.1 mg/mL) was injected into the same site. At four days after peptide injection, mice were euthanized by CO2 inhalation, and the infected skin tissues were excised, fixed in 4% paraformaldehyde, embedded in paraffin, stained with H&E, and observed by light microscopy.

The subject of experiment [2] is F. moniliforme. It is filed as cell-based, Fusarium moniliforme (KCTC 6149). As to conditions: 36 h. An excerpt:
(§1) Aspergillus flavus (KCTC 6905), A. fumigatus (KCTC 6145), Fusarium moniliforme (KCTC 6149), F. oxysporum (KCTC 16909), C. albicans (KCTC 7270), C. krusei (CCARM 14017), C. parapsilosis (CCARM 14016), C. tropicalis (KCTC 7221), and T. beigelii (KCTC 7707) were obtained from the Korea Collection for Type Cultures (KCTC) and Culture Collection of Antimicrobial Resistant Microbes (CCARM). Mold and yeast fungi were pre-grown on potato dextrose (PD) and yeast extract peptone dextrose (YPD) agars, respectively.
(§2) Antifungal activity of peptides was performed by microtiter plate assays. Fungal conidia from four-day-old molds were collected using 0.08% Triton X-100 (v/v), and pre-cultivated yeast cells were adjusted to 2 × 10^4 spores/mL in 10 mM sodium phosphate buffer (SP, pH 7.2) or 10 mM 2-(N-morpholino)ethanesulfonic acid (MES) buffer (pH 5.5) supplemented with 20% culture medium, followed by addition to peptide solutions (0.25, 0.5, 1, 1.5, 2, 4, 6, 8, 12, 16, 32, 48, and 64 µM) in 96-well microtiter plates. After incubation for 36 h at 28 °C, the hyphal growth of conidia and the proliferation of yeast cells were observed under a light microscope. All assays were performed in triplicate. The MIC values were defined as the lowest concentration of samples that reduced fungal germination (for mold) or cell proliferation (for yeast) by more than 90% [34].

In experiment [3] the test system is C. parapsilosis. It is filed as cell-based, C. parapsilosis (CCARM 14016). As to conditions: 36 h.
Description: as §1, §2

Experiment [4] relates to Candida albicans, C. krusei, C. tropicalis, and Trichosporon beigelii. Briefly: Antifungal microtiter plate assay (MIC), range over pathogenic yeasts. It is filed as cell-based. The note with it: neutral pH; range over four yeasts. The method, then:
as §2

The test system of experiment [5] is C. tropicalis. The format is cell-based, C. tropicalis (KCTC 7221). As to conditions: 36 h.
Description: as §1, §2

The subject of experiment [6] is A. fumigatus. It is filed as cell-based, A. fumigatus (KCTC 6145). The note with it: 36 h.
Description: as §1, §2

In experiment [7] the test system is A. flavus. The format is cell-based, Aspergillus flavus (KCTC 6905). As to conditions: 36 h.
Description: as §1, §2

The test system of experiment [8] is C. albicans. The format is cell-based, C. albicans (KCTC 7270). The note with it: 36 h.
Description: as §1, §2

Experiment [9] deals with C. krusei. It is filed as cell-based, C. krusei (CCARM 14017). As to conditions: 36 h.
Description: as §1, §2

For experiment [10], the system named is F. oxysporum. It is filed as cell-based, F. oxysporum (KCTC 16909). The note with it: 36 h.
Description: as §1, §2

The nature of experiment [11]: Calcein leakage from fungus-mimic artificial vesicles. The note with it: fungus-mimic PC/PE/PI/ergosterol vesicles, 20 μM lipid; peptide/lipid molar ratio 0.05; 100% = 0.03% Triton X-100; three independent experiments. Here is the method:
The permeability of peptides in calcein-entrapped artificial liposomes was assayed by measuring calcein leakage. The desired mixtures of lipids (PC/PE/PI/ergosterol, 5:4:1:2 and PC/CH/SM, 2:1:1, weight ratio) were dissolved in chloroform at 10 mg/mL, dried in a glass tube under nitrogen, and then lyophilized overnight to remove residual solvent. The dried lipid films were resuspended in 1 mL of dye solution (80 mM calcein, 10 mM HEPES buffer, pH 7.2) at 50 °C and vortexed, followed by freeze-thawing for nine cycles and extrusion with polycarbonate filters (0.2-μm pore-size) using an Avanti Mini-Extruder (Avanti Polar Lipids Inc., Alabaster, AL, USA). Free calcein was removed using PD-10 desalting columns (GE Healthcare Life Science, Seoul, Korea). Calcein-entrapped vesicles of 20 μM lipids were incubated with peptides at concentrations of […], 0.02, 0.05, and 0.1 molar ratio (peptide/lipid) and the fluorescence was assessed at 480 (Ex) and 520 (Em) nm using a microtiter SpectraMax M5 reader (Molecular Devices). Complete (100%) release was achieved by the addition of 0.03% Triton X-100 (v/v).

Experiment [12] has as its system T. beigelii. It is filed as cell-based, T. beigelii (KCTC 7707). The note with it: 36 h.
Description: as §1, §2

The test system of experiment [13] is C. tropicalis cells. Description: SYTOX Green uptake (membrane permeability). The format is cell-based. As to conditions: SP buffer pH 7.2, 0.5 μM SYTOX Green, peptides 1-64 µM, monitored 30 min. Here is the method: C. tropicalis cells pre-grown at 28 °C were washed and suspended (2 × 10^6 cells/mL) in SP buffer (pH 7.2). The cells were pre-incubated with SYTOX Green (final concentration of 0.5 μM) for 15 min in the dark, followed by adding two-fold serial dilutions of peptides at concentrations of 1 to 64 µM. The fluorescence intensity was monitored for 30 min at 485 (Ex) and 520 (Em) nm using a microtiter SpectraMax M5 reader (Molecular Devices, San Jose, CA, USA).

Experiment [14] concerns C. tropicalis cells. Briefly: Mitochondrial superoxide, MitoSOX Red flow cytometry. It is filed as cell-based. As to conditions: peptide at MIC for 8 h. Here is the method:
Mitochondrial SOX was measured using MitoSOX Red probe. C. tropicalis cells (2 × 10^4 spores/mL) were treated with samples at the appropriate MIC for 8 h and then stained with MitoSOX Red according to the manufacturer’s instructions. The stained cells were acquired by flow cytometry (Attune NxT Acoustic Focusing Cytometer; ThermoFisher Scientific Co., Eugene, OR, USA) at 561 nm by 10,000 total events.
(In general: Flow cytometry measures light scatter and fluorescence of single cells or particles in a stream.)

Consider GLNALKKVAQGIHEAAKLINNHVQ-NH2 [P2-LZ4], for which the “histological evaluation of skin tissues (H&E)” value in experiment [1] (100 µL of 0.1 mg/mL peptide s.c. 24 h after infection, tissues taken four days after peptide injection) is reported as “nearly identical to those of the PBS-treated mice”. Moreover, the “skin lesions (swelling and redness in the dorsal skin)” value in experiment [1] (100 µL of 0.1 mg/mL peptide s.c. 24 h after s.c. infection, monitored seven days, n = 4) is “no obvious skin lesions”. Moreover, the MIC in experiment [2] (pH 5.5) was 32 (32) µM; in [2] (pH 7.2), 32 (32) µM; in experiment [3] (pH 5.5), > 64 µM; in experiment [3] (pH 7.2) it was 48 µM; in [5] (pH 5.5), 1 µM; in experiment [5] (pH 7.2), 2 µM. The MIC in [6] (pH 5.5) is given as 16 µM; in experiment [6] (pH 7.2), 32 µM; in experiment [7] (pH 5.5) it was 16 µM; in experiment [7] (pH 7.2), 32 µM; in experiment [8] (pH 5.5) it was 8 µM; in experiment [8] (pH 7.2), 4 µM. The MIC in [9] (pH 5.5) is recorded as 8 µM; in [9] (pH 7.2), 6 µM; in experiment [10] (pH 5.5) it was 16 µM; in experiment [10] (pH 7.2) it was 2 µM; in [12] (pH 5.5), 1 µM; in experiment [12] (pH 7.2) it was 1.5 µM. The “MICs against pathogenic yeast cells” value in experiment [4] is on record as 1.5 to 6 µM. The leakage of calcein in experiment [11] is 80.5%.
GLNALKKVKQGKHEAIKLINNHVQ-NH2 [P2-LZ5]: the “SYTOX Green fluorescence intensity” value in experiment [13] is “much lower than that in the presence of the other peptides”. Also, the MIC is 64 (>64) µM in experiment [2] (pH 5.5); 64 (>64) µM in [2] (pH 7.2); >64 (>64) µM in experiment [3] (pH 5.5); >64 (>64) µM in experiment [3] (pH 7.2); 16 µM in experiment [5] (pH 5.5); 8 µM in experiment [5] (pH 7.2). For the same substance, the MIC is > 64 µM in [6] (pH 5.5); 16 µM in experiment [6] (pH 7.2); > 64 µM in experiment [7] (pH 5.5); 16 µM in experiment [7] (pH 7.2); 64 µM in experiment [8] (pH 5.5); 32 µM in experiment [8] (pH 7.2). The MIC is on record as 16 µM in experiment [9] (pH 5.5); 48 µM in [9] (pH 7.2); 16 µM in experiment [10] (pH 5.5); 6 µM in [10] (pH 7.2); 32 µM in experiment [12] (pH 5.5); 8 µM in experiment [12] (pH 7.2). Moreover, the “MitoSOX Red fluorescence (mitochondrial SOX)” value in [14] is on record as “significantly increased”. Besides, the leakage of calcein in [11] is 33.8%.
